Data published in US20230089867A1, “CYCLIC PENTAMER COMPOUNDS AS PROPROTEIN CONVERTASE SUBTILISIN/KEXIN TYPE 9 (PCSK9) INHIBITORS FOR THE TREATMENT OF METABOLIC DISORDER” (Novartis AG, priority 2018, published 2023).

Target: human PCSK9 (Homo sapiens, UniProt Q8NBP7)
Assay: PCSK9 ligand binding TR-FRET assay (interference with binding of human PCSK9 to human LDLR)
Settings: for Max % inhibition: PCSK9 FRET assay, efficacy (Amax), 100% = 1 uM unlabeled human PCSK9, 0% = DMSO; for IC50: TR-FRET, human PCSK9 Alexa Fluor 647 / human LDLR extracellular domain-Europium Kryptate, read-out: PCSK9 FRET Assay IC50
Outline: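 Threefold compound dilutions were pre-incubated 30 min with PCSK9, after which 4 nM Europium Kryptate-tagged human LDLR ectodomain was added for a further 2 h.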

Sequence of human PCSK9 (Q8NBP7 153-692): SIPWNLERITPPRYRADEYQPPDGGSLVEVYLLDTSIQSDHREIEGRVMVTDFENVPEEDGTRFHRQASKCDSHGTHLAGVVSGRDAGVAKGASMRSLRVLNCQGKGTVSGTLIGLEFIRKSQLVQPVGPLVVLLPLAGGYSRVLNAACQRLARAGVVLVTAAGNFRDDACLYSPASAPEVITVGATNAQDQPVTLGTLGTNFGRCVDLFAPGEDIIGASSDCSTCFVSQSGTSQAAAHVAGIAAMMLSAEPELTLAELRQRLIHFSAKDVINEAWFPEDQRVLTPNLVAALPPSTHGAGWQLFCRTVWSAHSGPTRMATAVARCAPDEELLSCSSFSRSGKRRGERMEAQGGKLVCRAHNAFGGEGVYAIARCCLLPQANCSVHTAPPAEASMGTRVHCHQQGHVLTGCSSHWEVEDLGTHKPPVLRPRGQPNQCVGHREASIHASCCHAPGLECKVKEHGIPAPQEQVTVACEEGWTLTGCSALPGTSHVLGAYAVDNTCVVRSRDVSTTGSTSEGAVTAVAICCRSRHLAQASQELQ
Sequence of human PCSK9 (Q8NBP7 31-152 partner limits assumed): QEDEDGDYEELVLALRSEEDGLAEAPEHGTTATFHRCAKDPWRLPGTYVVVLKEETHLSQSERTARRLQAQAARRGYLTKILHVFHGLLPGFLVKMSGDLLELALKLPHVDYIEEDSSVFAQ

Max % inhibition	IC50	SMILES
90.72%	9.9 nM	COC[C@@H]1NC(=O)[C@H](C)N(Cc2ccc(Cl)cc2Oc2ccc(-c3nnc4n3CCN(C(=O)[C@H]3CCNC3)C4)cc2)C(=O)C[C@@H](Cc2ccccc2)C(=O)N(C)[C@@H](C)CNC(=O)C[C@H](Cc2ccc(Cl)cc2)N(C)C1=O [Compound 131, (2S,5S,8S,13S,16R)-16-benzyl-1-(4-chloro-2-(4-(7-((S)-pyrrolidine-3-carbonyl)-5,6,7,8-tetrahydro-[1,2,4]triazolo[4,3-a]pyrazin-3-yl)phenoxy)benzyl)-8-(4-chlorobenzyl)-5-(methoxymethyl)-2,7,13,14-tetramethyl-1,4,7,11,14-pentaazacyclooctadecane-3,6,10,15,18-pentaone]
71.97%	7.3 nM	COC[C@@H]1NC(=O)[C@H](C)N(Cc2ccc(Cl)cc2Oc2ccc(-c3cnc4n3CCN(C(=O)C(C)C)C4)cc2)C(=O)C[C@@H](Cc2ccccc2)C(=O)N(C)[C@@H](C)CNC(=O)C[C@H](Cc2ccc(Cl)cc2)N(C)C1=O [Compound 132, (2S,5S,8S,13S,16R)-16-benzyl-1-(4-chloro-2-(4-(7-isobutyryl-5,6,7,8-tetrahydroimidazo[1,2-a]pyrazin-3-yl)phenoxy)benzyl)-8-(4-chlorobenzyl)-5-(methoxymethyl)-2,7,13,14-tetramethyl-1,4,7,11,14-pentaazacyclooctadecane-3,6,10,15,18-pentaone]
93.15%	5.8 nM	COC[C@@H]1NC(=O)[C@H](C)N(Cc2ccc(Cl)cc2Oc2ccc(-c3cnc4n3CCN(C(=O)C3CCOC3)C4)cc2)C(=O)C[C@@H](Cc2ccccc2)C(=O)N(C)[C@@H](C)CNC(=O)C[C@H](Cc2ccc(Cl)cc2)N(C)C1=O (stereo partly drawn) [Compound 133, (2S,5S,8S,13S,16R)-16-benzyl-1-(4-chloro-2-(4-(7-(tetrahydrofuran-3-carbonyl)-5,6,7,8-tetrahydroimidazo[1,2-a]pyrazin-3-yl)phenoxy)benzyl)-8-(4-chlorobenzyl)-5-(methoxymethyl)-2,7,13,14-tetramethyl-1,4,7,11,14-pentaazacyclooctadecane-3,6,10,15,18-pentaone]
98.77%	39.5 nM	COC[C@@H]1NC(=O)[C@H](C)N(Cc2ccc(Cl)cc2Oc2ccc(-n3nnc(CN(C)C)c3C)cc2)C(=O)C[C@@H](Cc2ccccc2)C(=O)N(C)[C@@H](C)CNC(=O)C[C@H](Cc2ccc(Cl)cc2)N(C)C1=O.O=CO [Compound 134, (2S,5S,8S,13S,16R)-16-benzyl-1-(4-chloro-2-(4-(4-((dimethylamino)methyl)-5-methyl-1H-1,2,3-triazol-1-yl)phenoxy)benzyl)-8-(4-chlorobenzyl)-5-(methoxymethyl)-2,7,13,14-tetramethyl-1,4,7,11,14-pentaazacyclooctadecane-3,6,10,15,18-pentaone formate]
58.33%	9.4 nM	COC[C@@H]1NC(=O)[C@H](C)N(Cc2ccc(Cl)cc2Oc2ccc(-c3cncc(C4CN(C)CCN4C)c3)cc2)C(=O)C[C@@H](Cc2ccccc2)C(=O)N(C)[C@@H](C)CNC(=O)C[C@H](Cc2ccc(Cl)cc2)N(C)C1=O (stereo partly drawn) [Compound 135, (2S,5S,8S,13S,16R)-16-benzyl-1-(4-chloro-2-(4-(5-(1,4-dimethylpiperazin-2-yl)pyridin-3-yl)phenoxy)benzyl)-8-(4-chlorobenzyl)-5-(methoxymethyl)-2,7,13,14-tetramethyl-1,4,7,11,14-pentaazacyclooctadecane-3,6,10,15,18-pentaone]
96.16%	5 nM	COC[C@@H]1NC(=O)[C@H](C)N(Cc2ccc(Cl)cc2Oc2ccc(-c3cncc(C4=CCNCC4)c3)cc2)C(=O)C[C@@H](Cc2ccccc2)C(=O)N(C)[C@@H](C)CNC(=O)C[C@H](Cc2ccc(Cl)cc2)N(C)C1=O [Compound 136, (2S,5S,8S,13S,16R)-16-benzyl-1-(4-chloro-2-(4-(1′,2′,3′,6′-tetrahydro-[3,4′-bipyridin]-5-yl)phenoxy)benzyl)-8-(4-chlorobenzyl)-5-(methoxymethyl)-2,7,13,14-tetramethyl-1,4,7,11,14-pentaazacyclooctadecane-3,6,10,15,18-pentaone]
90.76%	8.4 nM	COC[C@@H]1NC(=O)[C@H](C)N(Cc2ccc(Cl)cc2Oc2ccc(-c3cncc(C4CCNCC4)c3)cc2)C(=O)C[C@@H](Cc2ccccc2)C(=O)N(C)[C@@H](C)CNC(=O)C[C@H](Cc2ccc(Cl)cc2)N(C)C1=O [Compound 137, (2S,5S,8S,13S,16R)-16-benzyl-1-(4-chloro-2-(4-(5-(piperidin-4-yl)pyridin-3-yl)phenoxy)benzyl)-8-(4-chlorobenzyl)-5-(methoxymethyl)-2,7,13,14-tetramethyl-1,4,7,11,14-pentaazacyclooctadecane-3,6,10,15,18-pentaone]
98.02%	1.5 nM	COC[C@@H]1NC(=O)[C@H](C)N(Cc2ccc(Cl)cc2Oc2ccc(-c3cnc(CN4CCCC4)n3C)cc2)C(=O)C[C@@H](Cc2ccccc2)C(=O)N(C)[C@@H](C)CNC(=O)C[C@H](Cc2ccc(Cl)cc2)N(C)C1=O [Compound 138, (2S,5S,8S,13S,16R)-16-benzyl-1-(4-chloro-2-(4-(1-methyl-2-(pyrrolidin-1-ylmethyl)-1H-imidazol-5-yl)phenoxy)benzyl)-8-(4-chlorobenzyl)-5-(methoxymethyl)-2,7,13,14-tetramethyl-1,4,7,11,14-pentaazacyclooctadecane-3,6,10,15,18-pentaone]
65.69%	5.7 nM	C[C@H]1CNC(=O)C[C@H](Cc2ccc(Cl)cc2)N(C)C(=O)[C@H](CO)NC(=O)[C@H](C)N(Cc2ccc(Cl)cc2Oc2ccc3c(c2)C(=O)N(C2CCN(CC4CC4)CC2)C3)C(=O)C[C@@H](Cc2ccccc2)C(=O)N1C [Compound 139, (2S,5S,8S,13S,16R)-16-benzyl-1-(4-chloro-2-((2-(1-(cyclopropylmethyl)piperidin-4-yl)-3-oxoisoindolin-5-yl)oxy)benzyl)-8-(4-chlorobenzyl)-5-(hydroxymethyl)-2,7,13,14-tetramethyl-1,4,7,11,14-pentaazacyclooctadecane-3,6,10,15,18-pentaone]
102.37%	882 nM	COC[C@@H]1NC(=O)[C@H](C)N(Cc2ccc(Cl)cc2Oc2ccc(-c3cnc(CN(C)C)n3C)cc2)C(=O)CCC(=O)N(C)CCNC(=O)C[C@H](Cc2ccc(Cl)cc2)N(C)C1=O [Compound 141, (2S,5S,8S)-1-(4-chloro-2-(4-(2-((dimethylamino)methyl)-1-methyl-1H-imidazol-5-yl)phenoxy)benzyl)-8-(4-chlorobenzyl)-5-(methoxymethyl)-2,7,14-trimethyl-1,4,7,11,14-pentaazacyclooctadecane-3,6,10,15,18-pentaone]
100.91%	1.2 nM	C[C@H]1CNC(=O)C[C@H](Cc2ccc(Cl)cc2)N(C)C(=O)[C@H](CO)NC(=O)[C@H](C)N(Cc2ccc(Cl)cc2Oc2ccc(-c3cnc(CN(C)C)n3C)cc2)C(=O)C[C@@H](Cc2ccccc2)C(=O)N1C [Compound 142, (2S,5S,8S,13S,16R)-16-benzyl-1-(4-chloro-2-(4-(2-((dimethylamino)methyl)-1-methyl-1H-imidazol-5-yl)phenoxy)benzyl)-8-(4-chlorobenzyl)-5-(hydroxymethyl)-2,7,13,14-tetramethyl-1,4,7,11,14-pentaazacyclooctadecane-3,6,10,15,18-pentaone]
